“Also recorded” adds a separate entry of the source.
How the values were obtained:
[1] = system: primary adult rat dorsal root ganglion neuron (DRGN) cultures; assay: DRGN survival and neurite outgrowth in culture; type: cell-based; details: for optimal concentration that promoted DRGN/RGC survival and neurite outgrowth: preliminary experiments, DRGN/RGC cultures
Protocol: (§1) Rat DRGN and retinal cultures. […] Cells were cultured for 4 days in a humidified chamber at 37° C. and 5% CO2 before being subjected to quantitative RT-PCR or immunocytochemistry, as described below.
Immunocytochemistry. […] Slides were then viewed with an epi-fluorescent Axioplan 2 microscope, equipped with an AxioCam HRc and running Axiovision Software (all from Carl Zeiss, Hertfordshire, UK).

[2] = system: RGC; assay: Optic neuritis model: RGC survival (Fluorgold backfilled wholemounts); type: in vivo, mice; details: 21 days after induction
Protocol: (§2) Induction of optic neuritis. […] Animals were intraperitoneally injected with 150 ng Bordetella pertussis toxin on day 0 and 2. Animals were monitored daily and assessed for the development of EAE. At the end of the experiment, animals were then killed by CO2 overdose.
(§3) Assessment of RGC survival.

[3] = system: T8 dorsal column (DC) crush model of spinal cord injury; assay: DC crush injury model: electrophysiology (compound action potentials); type: in vivo, rat; details: 6 weeks after DC injury
Protocol: (§4) DC crush injury model. Rats were injected subcutaneously with 0.05 ml Buprenorphine to provide analgesia prior to surgery and anaesthetised using 5% of Isoflurane in 1.8 ml/l of O2 with body temperature and heart rate monitored throughout surgery.
(§5) Chk2 inhibition studies in the DC crush injury model. […] Chk1i (LY2603618) was used at equimolar concentrations for each experiment. Rats were killed in a rising concentration of CO2 at either 28 d for immunohistochemistry and western blot analyses or 6 weeks for electrophysiology and functional tests.
Electrophysiology. […] Briefly, with the experimenter masked to the treatment conditions, silver wire electrodes applied single-current pulses (0.05 ms) through a stimulus isolation unit in increments (0.2, 0.3, 0.6, 0.8, and 1.2 mA) at L1-L2 and compound action potentials (CAP) were recorded at C4-C5 along the surface of the midline spinal cord. Spike 2 software was then used to calculate CAP amplitudes between the negative deflection after the stimulus artifact and the next peak of the wave. CAP area was calculated by rectifying the negative CAP component (full-wave rectification) and measuring its area. At the different stimulation intensities. […] Representative CAP traces are processed output data from Spike 2 software.

[4] = system: dorsal column (DC) axons; assay: DC crush injury model: GAP43+ DC axon regeneration; type: in vivo, rat
[5] = system: RGC; assay: Glaucoma model: RGC survival in retinal wholemounts; type: in vivo, rat; details: 30 days after induction of glaucoma
Protocol: Induction of glaucoma. […] At day zero, a self-sealing incision was made though the cornea into the anterior chamber enabling twice weekly intracameral injections of 3.5 μl of TGFβ2 (5 ng/μl) using glass micropipettes for 30 days. Vehicle, comprising saline, was injected in control groups. Intraocular pressure was measured using an iCare Tonolab rebound tonometer (Icare, Helsinki, Finland).
as §3

[6] = system: T8 dorsal column (DC) crush model of spinal cord injury; assay: DC crush injury model: tape sensing and removal test (sensory function); type: in vivo, rat; details: followed over 6 weeks
Protocol: as §4, §5
(§6) Functional tests. […] Experiments were performed by 2 observers (treatment conditions were masked) in the same order, the same time of day and each test performed for 3 individual trials.

[7] = system: retinal nerve fibre layer; assay: Optic neuritis model: RNFL thickness by OCT; type: in vivo, mice; details: day 21
Protocol: as §2
Measurement of RNFL thinning using optical coherence tomography (OCT). […] Examinations were recorded in both right (oculus dextrus, OD) and left eyes (oculus sinister, OS) of each animal at day 0 and day 21 after immunisation. […] A RNFL single exam using the automatic real time (ART) mode (allows averaging of 100 recordings) was produced for each mouse eye, which automatically measured RNFL thickness (μm) in a 30° circle surrounding the optic nerve head.

[8] = system: RGC function; details: 24 days after ONC
[9] = system: T8 dorsal column (DC) crush model of spinal cord injury; assay: DC crush injury model: horizontal ladder test (locomotor function); type: in vivo, rat; details: followed over 6 weeks
Protocol: as §4, §5, §6
Horizontal ladder test: This tests the animals locomotor function and is performed on a 0.9-meter-long horizontal ladder with a diameter of 15.5 cm and randomly adjusted rungs with variable gaps of 3.5-5.0 cm. The total number of steps taken to cross the ladder and the left and right rear paw slips being were recorded and the mean error rate was then calculated by dividing the number of slips by the total number of steps taken.

[10] = system: pChk2^T68 and pChk2^T383; details: western blot and densitometry
Protocol: as §1
Protein extraction and western blot analysis. […] For densitometry, western blots were scanned into Adobe Photoshop (Adobe Systems Inc, San Jose, Calif., USA) and analysed using the built-in-macros for gel analysis in ImageJ (NIH, USA, http://imagej.nih.clov/ij).

Molecule: NC(=O)c1ccc2[nH]c(-c3ccc(Oc4ccc(Cl)cc4)cc3)nc2c1 [BML-277]
- optimal concentration that promoted DRGN/RGC survival and neurite outgrowth [1]: 5 µM

Molecule: COc1cc2nc(-c3cc(F)ccc3O)nc(N[C@@H]3CNC[C@H]3C(C)(C)O)c2cc1OC [CCT241533]
- optimal concentration that promoted DRGN/RGC survival and neurite outgrowth [1]: 10 µM

Molecule: Cc1cnc(NC(=O)Nc2cc(Br)c(C)cc2OC[C@@H]2CNCCO2)cn1 [LY2603618]
- RGC survival in optic neuritis [2]: no effect
- CAP area at different stimulation intensities [3]: significantly attenuated
- negative CAP amplitudes ([3]; different stimulation intensities): significantly attenuated
- DC axon regeneration beyond the lesion site ([4]; listed as Chk1 i): few GAP43^+ axons
- DC axon regeneration beyond the lesion site ([4]; listed as Chk1i): no axon regeneration beyond the lesion site
- RGC survival in glaucoma [5]: no effect
- effect on DRGN/RGC survival ([1]; 1-50 μM): no effect
- effect on DRGN survival, % DRGN with neurites and neurite length ([1]; 4 days culture): no effect
- tape sensing/removal test performance ([6]; listed as Chk1 i): a significant deficit remained
- tape sensing/removal test performance ([6]; listed as Chk1i): a significant deficit remained
- RNFL thickness in optic neuritis [7]: no effect
- ERG traces and pSTR amplitude [8]: no effect
- ladder crossing test performance ([9]; listed as Chk1 i): a deficit remaining
- ladder crossing test performance ([9]; listed as Chk1i): a significant deficit remains; also recorded: a deficit remaining

Molecule: COc1cccc(OCCCN)c1-c1cc(Nc2cnc(C#N)cn2)n[nH]1 [Prexasertib]
- optimal concentration that promoted DRGN/RGC survival and neurite outgrowth [1]: 10 µM

Molecule: CCT241533
- Chk2 phosphorylation (pChk2^T68, pChk2^T383) in DRGN cultures [10]: suppresses

Molecule: FGF2: positive control for DRGN cultures, pre-optimised 10 ng/ml
- % DRGN with neurites ([1]; 4 days culture): 42%
- mean neurite length ([1]; 4 days culture, controls 12 μm): 180 μm
